# Data: paper PMC11509018, “Evaluation of the Role of Tanshinone I in an In Vitro System of Charcot-Marie-Tooth Disease Type 2N” (International Journal of Molecular Sciences, 2024)
# Numbering of substitutions follows the chain as printed.
# Key:
# [1] = biological target: T1, AlaRS^R326W (Homo sapiens, UniProt P49588, R326W); test: Proteolytic digestion assay (trypsin, SDS-PAGE); settings: three hours
# T1 construct: made in house; host or cells: E. coli BL21 (DE3), pET-21a
# T1 sequence (P49588 1-968 R326W): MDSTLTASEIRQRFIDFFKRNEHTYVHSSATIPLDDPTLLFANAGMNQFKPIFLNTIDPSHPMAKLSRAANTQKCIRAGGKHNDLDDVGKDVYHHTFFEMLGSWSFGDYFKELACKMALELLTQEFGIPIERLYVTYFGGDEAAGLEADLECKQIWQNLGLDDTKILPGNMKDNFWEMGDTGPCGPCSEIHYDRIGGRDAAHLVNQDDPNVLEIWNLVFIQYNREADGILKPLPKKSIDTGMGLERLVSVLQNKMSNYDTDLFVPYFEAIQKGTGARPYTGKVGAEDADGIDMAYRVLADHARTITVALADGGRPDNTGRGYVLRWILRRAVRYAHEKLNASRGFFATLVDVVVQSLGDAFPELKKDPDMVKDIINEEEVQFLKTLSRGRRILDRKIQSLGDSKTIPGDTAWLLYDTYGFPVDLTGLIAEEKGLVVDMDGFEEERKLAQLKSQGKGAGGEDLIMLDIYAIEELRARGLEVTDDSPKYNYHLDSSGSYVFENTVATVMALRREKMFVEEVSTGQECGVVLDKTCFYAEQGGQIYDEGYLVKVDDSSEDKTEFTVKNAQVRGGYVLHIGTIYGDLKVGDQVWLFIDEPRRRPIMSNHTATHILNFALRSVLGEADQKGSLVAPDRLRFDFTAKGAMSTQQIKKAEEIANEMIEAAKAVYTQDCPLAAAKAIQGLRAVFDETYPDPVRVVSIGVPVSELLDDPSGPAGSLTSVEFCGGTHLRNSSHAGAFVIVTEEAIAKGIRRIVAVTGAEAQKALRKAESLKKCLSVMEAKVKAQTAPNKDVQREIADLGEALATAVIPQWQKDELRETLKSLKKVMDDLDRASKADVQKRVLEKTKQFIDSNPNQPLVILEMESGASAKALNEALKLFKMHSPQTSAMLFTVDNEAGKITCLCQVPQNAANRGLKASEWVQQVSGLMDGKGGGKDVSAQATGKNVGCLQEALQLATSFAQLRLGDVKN
# Source text: (§1) Furthermore, we examined the interaction of Tanshinone I with additional AlaRS CMT mutants capable of binding to Nrp1 and causing conformational changes by BLI and proteolysis assays on additional related mutants.
# (§2) Figure 5 BLI and proteolytic digestion assay of AlaRS mutants with Tanshinone I. Binding sensorgrams for the interaction of Tanshinone I with immobilized AlaRS^R329H (A), AlaRS^G102R (C), AlaRS^R326W (E), and AlaRS^E337K (G). Each sensorgram contains five curves generated from five different concentrations. The KD values are presented as the mean ± SD and experiments were performed in triplicate. The AlaRS^N71Y (B), AlaRS^G102R (D), AlaRS^R326W (F), and AlaRS^E337K (H) proteins (in the presence and absence of Tanshinone I) were incubated with trypsin at different concentrations for three hours before the reactions were quenched, and the products were separated by SDS-PAGE.
# [2] = biological target: T2, AlaRS^G102R (Homo sapiens, UniProt P49588, G102R); test: Proteolytic digestion assay (trypsin, SDS-PAGE); settings: three hours
# T2 construct: made in house; host or cells: E. coli BL21 (DE3), pET-21a
# T2 sequence (P49588 1-968 G102R): T1 sequence (P49588 1-968 R326W) with G102R, W326R
# Source text: as §1, §2
compound,measurement,setting,value
Cc1coc2c1C(=O)C(=O)c1c-2ccc2c(C)cccc12 [Tanshinone I],Effect on proteolytic fragments / conformation,[1],distinct proteolytic fragments after Tanshinone I treatment
same,Effect on proteolytic fragments / conformation,[2],more prominent bands at 1/100 after Tanshinone I treatment
